According to US8021672B2, “Development of a Chlamydia sp. vaccine strain” (priority 2006, dated 2011):

How the values were obtained:
[1] = tested on: plasmid; details: 20 μg ml^−1 in conjunction with imipramine; cited from earlier work
[2] = tested on: C. muridarum strain Nigg; assay: Effect of novobiocin treatment on replication of Chlamydiae (titration by plaque assay); assay type: cell-based; details: novobiocin 62.5 μg ml^−1 added 4 hours post infection
Excerpt: FIG. 1. Effect of novobiocin treatment on replication of C. muridarum strain Nigg. The novobiocin-treated Chlamydiae were harvested and plated by centrifugation to generate individual plaques for titration. The relative infectious yield of strain Nigg at each novobiocin concentration was derived by normalizing the total infectious yield per treated population against the yield from the untreated control. The graph is drawn from a single representative experiment with each point assayed in duplicate.
Cell culture media and reagents were purchased from Mediatech (Hearndon, Va.). Wells containing confluent monolayers of McCoy cells were infected at an approximate MOI of 0.5-1, before being centrifuged for 1 hour at 37° C. The infective inoculum was then removed and replaced with 1× Dulbecco's modified Eagle's medium (DMEM) supplemented with 10% heat-inactivated FBS, gentamicin (20 μg ml^−1) and 0.1 μg ml^−1 cycloheximide. We have previously determined that concentrations in excess of 250 μg ml^−1 are cytotoxic for uninfected McCoy cells. Novobiocin (Sigma, St. Louis, Mo.) was added at the indicated concentrations (up to 250 μg ml^−1) at 4 hours post infection. Infected cells were incubated at 37° C., 5% CO2 for a further 36 hours. […]
Effect of novobiocin treatment on replication of Chlamydiae. […] The titers of novobiocin-treated bacteria were measured by plaque assays (FIG. 1). […]

[3] = tested on: uninfected McCoy cells; assay: Cytotoxicity of novobiocin for uninfected host cells; assay type: cell-based
Description: Cell culture media and reagents were purchased from Mediatech (Hearndon, Va.). Wells containing confluent monolayers of McCoy cells were infected at an approximate MOI of 0.5-1, before being centrifuged for 1 hour at 37° C. The infective inoculum was then removed and replaced with 1× Dulbecco's modified Eagle's medium (DMEM) supplemented with 10% heat-inactivated FBS, gentamicin (20 μg ml^−1) and 0.1 μg ml^−1 cycloheximide. We have previously determined that concentrations in excess of 250 μg ml^−1 are cytotoxic for uninfected McCoy cells. Novobiocin (Sigma, St. Louis, Mo.) was added at the indicated concentrations (up to 250 μg ml^−1) at 4 hours post infection. Infected cells were incubated at 37° C., 5% CO2 for a further 36 hours. Infected cells were harvested into SPG buffer (218 mM sucrose, 3.8 mM KH2PO4, 7.2 mM K2HPO4, 4.9 mM L-glutamate, pH 7.2) at 40 hours post infection, sonicated, and stored at −80° C. Bacteria were subsequently titrated by plaque assay or as inclusion forming units (IFU) using a genus-specific fluorescently tagged monoclonal antibody (Biorad, Hercules, Calif.).

[4] = tested on: McCoy cells; assay: Iodine staining of Chlamydia-infected cells for glycogen accumulation; assay type: cell-based; details: Nigg-infected McCoy monolayers, 62.5 μg ml^−1
Excerpt: Iodine staining of Chlamydia-infected cells. McCoy cells cultured on glass cover slips were infected as described above. At the desired point in the infection the culture medium was removed and the monolayer rinsed several times with 1×HBSS before being fixed and stained with iodine (Schachter J & Dawson, 1978) in order to detect the presence of accumulated glycogen. Stained cells were immediately photographed using a digital camera system and SPOT version 4.0.6 software from Diagnostic Instruments Inc. (Sterling Heights, Mich.).
Plasmid-deficient C. muridarum fail to accumulate glycogen within inclusions.

## CO[C@@H]1[C@@H](OC(N)=O)[C@@H](O)[C@H](Oc2ccc3c(O)c(NC(=O)c4ccc(O)c(CC=C(C)C)c4)c(=O)oc3c2C)OC1(C)C [novobiocin]
[1]
  effect on plasmid copy number: plasmid copy number increases
[2]
  reduction of relative infectious yield of bacteria: at least 100 fold
[3]
  concentrations cytotoxic for uninfected McCoy cells: > 250 µg/mL
[4]
  iodine staining of inclusions under novobiocin treatment: variable iodine staining of inclusions
